Assay: xn = mol fraction of the nth substance listed

Fc1ccccn1 + Fc1cccc[nH+]1.O=S(=O)([O-])C(F)(F)F
100 kPa
Settings	electrical conductivity [S/m]
242.8 K, x1 = 0.9	0.096
252.7 K, x1 = 0.9	0.144
262.8 K, x1 = 0.5	0.0069
282 K, x1 = 0.95	0.497
282.5 K, x1 = 0.5	0.023
282.5 K, x1 = 0.9	0.576
286.9 K, x1 = 0.95	0.564
292.7 K, x2 = 0.01	0.174
301.5 K, x1 = 0.9	0.75

C=CCn1cc[n+](C)c1.[I-] + II
Settings	electrical conductivity [S/m]
298 K, 101.3 kPa, x1 = 0.25	4.21

CCCC[N+]1(C)CCCC1.N#C[N-]S(=O)(=O)C(F)(F)F + N#C[N-]S(=O)(=O)C(F)(F)F.[Li+]
101 kPa, frequency 0 MHz, x2 = 0
Settings	electrical conductivity [S/m]
308 K	0.644
313 K	0.752

101 kPa, x2 = 0
Settings	viscosity [mPa·s]
308 K	33.6
313 K	28.6

CCCCCCCCn1cc[n+](C)c1.F[B-](F)(F)F + NC(N)=O + O
298.15 K, 100 kPa
Settings	viscosity [mPa·s]
x2 = 0, x3 = 0.9487	5.25
x2 = 0.008492, x3 = 0.9402	5.16
x2 = 0.01695, x3 = 0.9318	5.13
x2 = 0.03322, x3 = 0.9155	5.12
x2 = 0.0408, x3 = 0.9079	5.13

CCCCCCCCn1cc[n+](C)c1.[Br-] + NC(N)=O + O
298.15 K, 100 kPa
Settings	viscosity [mPa·s]
x2 = 0, x3 = 0.9008	31.3
x2 = 0, x3 = 0.9487	7.96
x2 = 0.008063, x3 = 0.8927	31.3
x2 = 0.008505, x3 = 0.9402	7.68
x2 = 0.01609, x3 = 0.8847	31.2
x2 = 0.02499, x3 = 0.9237	7.49
x2 = 0.03154, x3 = 0.8693	30.7
x2 = 0.03316, x3 = 0.9155	7.32
x2 = 0.03874, x3 = 0.8621	30.7
x2 = 0.04082, x3 = 0.9079	7.14

CCCCCCCCCCCCCCCC[n+]1ccccc1.O=C([O-])c1ccccc1O + NCC(=O)NCC(=O)O + O
electrical conductivity [S/m], 101 kPa
Settings	293.15 K	298.15 K	303.15 K	308.15 K	313.15 K
x2 = 0.0009002, x1 = 3.6e-07	0.0016	0.0019	0.00224	0.00265	0.00314
x2 = 0.0009002, x1 = 7.2e-07	0.00178	0.0021	0.00248	0.0029	0.00341
x2 = 0.0009002, x1 = 1.09e-06	0.00197	0.00232	0.00272	0.00318	0.00371
x2 = 0.0009002, x1 = 1.27e-06	0.00204	0.00241	0.00282	0.00329	0.00384
x2 = 0.0009002, x1 = 1.63e-06	0.00215	0.00253	0.00296	0.00345	0.00402
x2 = 0.0009002, x1 = 1.99e-06	0.00228	0.00269	0.00318	0.00366	0.00426
x2 = 0.0009002, x1 = 2.36e-06	0.00242	0.00285	0.00336	0.00389	0.00452
x2 = 0.0009002, x1 = 2.72e-06	0.00254	0.00298	0.0035	–	0.00473
x2 = 0.0009002, x1 = 3.08e-06	0.00261	0.00307	0.0036	0.00419	0.00487
x2 = 0.0009002, x1 = 3.44e-06	0.00272	0.00319	0.00373	0.00434	0.00504
x2 = 0.0009002, x1 = 3.81e-06	0.00285	0.00334	0.00389	0.00452	0.00524
x2 = 0.0009002, x1 = 4.35e-06	0.00298	0.00348	0.00404	0.00468	0.00543
x2 = 0.0009002, x1 = 4.71e-06	0.00311	0.00362	0.00422	0.00487	0.00562
x2 = 0.0009002, x1 = 5.26e-06	0.00322	0.00374	0.00435	0.00501	0.00579
x2 = 0.0009002, x1 = 5.62e-06	0.00334	–	0.0045	0.00518	0.00595
x2 = 0.001799, x1 = 1.8e-07	0.00253	0.00303	0.00363	0.00434	0.00519
x2 = 0.001799, x1 = 3.6e-07	0.0026	0.00311	0.00371	0.00444	0.00529
x2 = 0.001799, x1 = 5.5e-07	0.00269	0.00321	0.00382	0.00456	–
x2 = 0.001799, x1 = 7.3e-07	0.00282	0.00336	0.00389	0.00475	0.00563
x2 = 0.001799, x1 = 9.1e-07	0.00291	0.00345	0.0041	0.00487	0.00576
x2 = 0.001799, x1 = 1.28e-06	0.00301	0.00357	0.00422	0.00501	0.00592
x2 = 0.001799, x1 = 1.46e-06	0.00313	0.0037	0.00438	0.00519	0.00613
x2 = 0.001799, x1 = 1.82e-06	0.00325	0.00384	0.00454	0.00537	0.00632
x2 = 0.001799, x1 = 2.19e-06	0.00335	0.00397	0.00469	0.00555	0.00653
x2 = 0.001799, x1 = 2.55e-06	0.00347	0.0041	0.00484	0.00572	0.00673
x2 = 0.001799, x1 = 2.92e-06	0.00355	0.00419	0.00495	0.00584	0.00688
x2 = 0.001799, x1 = 3.1e-06	–	–	–	–	0.00701
x2 = 0.001799, x1 = 3.46e-06	0.00371	0.00437	0.00515	0.00607	0.00715
x2 = 0.001799, x1 = 3.83e-06	0.00379	0.00447	0.00526	0.00619	0.00728
x2 = 0.001799, x1 = 4.01e-06	–	–	–	–	0.00738

Source: the CheMixHub ionic liquid set
